Key:
MEK1/2 = assay: Western blot of pERKs and ERKs in mice whole brain lysates after oral administration; assay type: in vivo; details: wild type mice
Procedure: FIG. 2 provides a representative image of western blot analysis of pERKs and ERKs in mice whole brain lysates. ERKs were included as a loading control.
Cells and tissues were washed twice with ice-cold phosphate-buffered saline (PBS) and extracted by homogenizing with Ripa buffer (10 mM HEPES, 1.5 mM MgCl2, 10 mM KCl, 0.01 M DTT, protease inhibitors, pH 7.9). Lysates were centrifuged at 13,000 rpm for 20 min at 4° C. and the protein content in the supernatant was determined using Bradford assay (Bio-rad, Hercules, Calif.). Protein from each sample was subjected to 8%-15% SDS-PAGE, and the resolved proteins were transferred to nitrocellulose or polyvinylidene fluoride membrane. The membranes were blocked with 5% nonfat milk powder in Tris-buffered saline/Tween 20 (TBST) for 1 h at room temperature, then incubated with anti-phospho-ERK (Cell signaling), anti-ERK (Cell signaling), anti-LAMP1 (Abcam), anti-LC3 (Cell signaling), anti-cathepsin B (Cell signaling), anti-p62 (Cell signaling), anti-p62 (5114, Cell signaling), anti-phospho-mTOR (5536, Cell signaling), anti-mTOR (2983, Cell signaling), anti-phospho-ULK1 (14202, Cell signaling), anti-ULK1 (8054, Cell signaling), anti-TFEB (852501, Biolegend), and anti-GAPDH (Cell signaling) overnight at 4° C. […] The detected signals were quantified using a LAS-4000 system (Fuji Film, Tokyo, Japan).

[1] = test system: mRNA expression in whole brain; assay: Bulk RNA-Seq of whole brains of wild type mice after oral administration; assay type: in vivo; details: FC ≥1.3, FDR <0.05
Procedure: To evaluate the transcriptional profiles in the brain, bulk RNA-Seq was performed using whole brains of wild type mice following oral administration of trametinib. Gene ontology terms were enriched at each weekly time point, indicating the relevance of cellular function such as synaptic potential, nervous system development, immune response, and incorrect protein folding in a temporal pattern (FIG. 3A). Decrease in MEK-ERK signaling with trametinib administration during week 1 and week 2 of administration can be indirectly confirmed through the decrease in expression of FGF receptor signaling and GPCR signaling related genes.
In the second week, we observed neuroblast proliferation-related and axon growth-related gene expression, followed by expression of genes for immune reaction and incorrect protein modification reaction in the third and fourth week, respectively. It is important to note that increase in the gene-sets associated with neurogenesis and the induction of lysosomal activity both occurred within the four-week period, as illustrated by the gene expression heatmap (FIGS. 4A-4B). […] Their FCs were between −2.26 and 3.71.
RNA was isolated from the mice whole brain and cDNA libraries for RNA sequencing were prepared using the TruSeq Stranded mRNA Prep Kit (Illumina, San Diego, Calif.) according to the manufacturer's guidelines (l). The libraries were sequenced on the Illumina Nextseq500 platform and the reads were mapped to the reference Mouse mm10 genome using Tophat v2.0.13. The total number of reads mapped to the transcriptomes were 24,532 genes and the genes with 0 count in at least one sample were removed before differential expression analysis. There was a total of 18,727 genes after the removal of genes with 0 count. To define differentially expressed genes (DEG), we set up a stringent statistic cutoff of fold change (FC) of ≥1.3 and a false discovery rate (FDR)<0.05. A total of 500 DEGs was identified between the vehicle-treated group and trametinib-treated group in the first week, 498 DEGs in the second week, 446 genes in the third week and 538 genes in the fourth week. Gene ontology was performed with Gene Ontology program of the gene ontology consortium. Heatmap analysis was performed by R studio using the DEG list related with synapse, neurogenesis and lysosome.

SOD1-G93A ALS model mice = assay: Survival of SOD1-G93A ALS model mice; assay type: in vivo; details: 0.1 or 0.2 mg/kg/day oral
Procedure: Therapeutic efficacy of trametinib was examined in the SOD1-G93A transgenic mouse model, the most widely used animal model for ALS research. The SOD1-G93A ALS model mice, TgN [B6SJL-Tg (SOD1-G93A) 1Gur], were purchased from Jackson Laboratory (ME, USA) and bred at 21±2° C., 35-65% RH.
In addition, immunohistochemical analysis was performed with the spinal cords of the mice to evaluate the efficacy of trametinib on the tissue, cellular, and molecular level.
After the onset of symptoms (around 16 weeks after birth), trametinib was orally administered to two groups of ALS model mice every day at the doses of 0.1 mg/kg or 0.2 mg/kg (mpk). As controls, wild type (WT) mice and ALS model mice were treated with vehicle.
Mice with motor performance score at or lower than 3 were euthanized as they were not able to feed themselves. Survival days for each group of mice were counted.

[2] = test system: spinal cord neurons of SOD1-G93A ALS model mice; assay: Histological and immunohistochemical analysis of spinal cord of SOD1-G93A ALS model mice; assay type: in vivo; details: vs vehicle-treated ALS mice
Procedure: After the behavioral tests above were completed, the spinal cords of the euthanized mice were removed, fixed, and processed. The spinal cord tissue was sliced to a thickness of 10 μm with the CM1860 cryomicrotome (Leica Biosystems, Germany). Immunohistochemical analysis was performed using various staining methods to examine the spinal cord tissue, motor neurons, and protein expression in the motor neurons.
Through Nissl staining, the condition and distribution of neurons can be examined. Nissl staining solution contained 0.1% w/v Cresyl Violet (Sigma, C-5042, USA) and 0.1% v/v glacial acetic acid.
In order to examine the condition of the motor neurons, the spinal cord tissues were subjected to NeuN immunofluorescent staining to observe all types of neurons (red in FIG. 11) and SMI-32 staining (SMI-32 antibody binds specifically to motor neurons) to observe motor neurons (green in FIG. 11).
A longitudinal section of the spinal cord tissue was stained with tau antibody to examine the condition of the axonal nerve tract.
A cross-section of the spinal cord was stained with Tuj 1, an axonal marker, to examine the condition of axons in the tested mice.
MAP2 staining was performed to observe the condition of dendrites projecting out of the neurons.
(§1) Mice were perfused with ice-cold phosphate buffered saline (PBS) and followed by 4% paraformaldehyde (PFA). Spinal cords were dissected and analyzed by immunohistochemistry. For cryosections, spinal cords were prepared into sections of 10 μm slices. For immunostaining, the sections were incubated with anti-Map2 (Millipore, Burlington, Mass.), anti-Tuj 1 (Cell signaling, Danvers, Mass.), anti-SMI-32 (Biolegend, San Diego, Calif.), anti-LAMP1 (Abcam, Cambridge, UK), or anti-LC3 (Cell signaling) antibodies. This step was followed by incubation with Alexa Fluor 488-conjugated anti-mouse IgG (Thermo, Waltham, Mass.), Alexa Fluor 488-conjugated anti-rat IgG (Thermo), Alexa Fluor 555-conjugated anti-rabbit IgG secondary antibodies (Thermo). The sections were counterstained with DAPI. The immunofluorescent images were captured using a LSM700 Laser-Scanning confocal microscope (Carl Zeiss, Heildenheim, Germany). For Nissl staining, the sections were incubated with Nissl staining solution (0.1% w/v Cresyl Violet (Sigma, C-5042, USA) and 0.1% v/v glacial acetic acid). The length of the Map2 and Tuj 1 positive dendrites and axons were measured using Icy program. The LC3-LAMP1 co-localization was observed under a confocal microscopy using a LSM700 microscope (Carl Zeiss).

[3] = test system: LAMP1 / LC3 in spinal cord of SOD1-G93A ALS model mice; assay: LC3 and LAMP1 immunofluorescence in spinal cord tissues (autophagosome-lysosome fusion); assay type: in vivo; details: vs vehicle-treated ALS model mice
Procedure: as §1

patients with ALS = assay: Phase 1/2a clinical trial in patients with ALS; assay type: in vivo, human
Description: Patients are selected based on the following criteria for a sequential dose-escalation, randomized, active-controlled, phase ½a clinical trial to evaluate the safety, tolerability and efficacy of trametinib in patients with ALS.
Patients diagnosed as definite, probable or probable-laboratory-supported ALS according to El Escorial Criteria. Patients of less than 2 years after the onset of ALS. Patients who meet the criteria of K-ALSFRS-R score (total score of at least 30 and score of at least 2 for each item) and forced vital capacity (% FVC≥70%, or 60%≤% FVC<70% with K-ALSFRS-R score ≥3 for items 10 to 12).
Patients with primary lateral sclerosis, progressive muscular atrophy or lower motor neuron disease. […] Patients who have permanently ceased the administration of riluzole due to lack of tolerability and/or efficacy. […]
As primary outcome measures, safety and tolerability of trametinib is tested based on observation of adverse events. As secondary outcome measures, K-ALSFRS-R (Korean version of Amyotrophic Lateral Sclerosis Functional Rating Scale-Revised) scores are measured in the patients by independent outcome assessors. Additionally, change in forced vital capacity (FVC) from baseline, trough concentrations of trametinib in cerebrospinal fluid (CSF) and trough concentrations of trametinib in plasma are further measured.

in vivo = details: mouse, po, 0.8 mg/kg
Procedure: Trametinib (Medchemexpress, Monmouth Junction, N.J.) was micronized and suspended in the vehicle containing 5% mannitol, 1.5% hydroxypropyl methylcellulose and 0.2% sodium lauryl sulfate. For pharmacokinetic analysis, 0.05, 0.2 and 0.8 mg/kg of trametinib were orally administered in to 7-week-old normal mice (n=5 per group) as a single administration. Mice were sacrificed at each identical time points.

## CC(=O)Nc1cccc(-n2c(=O)n(C3CC3)c(=O)c3c(Nc4ccc(I)cc4F)n(C)c(=O)c(C)c32)c1 [Trametinib, acetamide, N-[3-[3-cyclopropyl-5-[(2-fluoro-4-iodophenyl)amino]-3,4,6,7-tetrahydro-6,8-dimethyl-2,4,7-trioxopyrido[4,3-d]pyrimidin-1(2H)-yl]phenyl]]
MEK1/2
  pERK expression in the brain: significant decrease in pERK expression
[1]; first week
  number of differentially expressed genes (DEGs) vs vehicle-treated group: 500
[1]; fourth week
  number of differentially expressed genes (DEGs) vs vehicle-treated group: 538
[1]; second week
  number of differentially expressed genes (DEGs) vs vehicle-treated group: 498
[1]; third week
  number of differentially expressed genes (DEGs) vs vehicle-treated group: 446
SOD1-G93A ALS model mice
  survival compared to the vehicle-treated groups: prolonged
[2]
  axon condition (Tuj 1 staining, cross-section): relatively well protected long axons
  axonal tract condition (tau staining, longitudinal section): reduced number of abnormal axonal spheroids
  dendrite condition (MAP2 staining): quite well protected
  motor neuron shape (SMI-32 and NeuN staining): elongated neurite shape was relatively well preserved
  number of neurons in spinal cord (Nissl staining): retained more neurons than the vehicle-treated group
[3]
  LAMP1 signal (lysosome marker): LAMP1 signal was restored
  fusion of lysosome and autophagosome (LC3-LAMP1 co-localization): restored as well
Patients with ALS; 0.5, 1 or 2 mg trametinib
  symptoms associated with ALS in treated patients: reduction of a behavioral, physiological and/or pathological symptom associated with ALS
Patients with ALS; some patients
  level of one or more markers after treatment: change in the level of one or markers
In vivo
  Kp: 0.477

Source: patent US20200368239A1, “TREATMENT OF AMYOTROPHIC LATERAL SCLEROSIS USING TRAMETINIB” (priority 2019, published 2020)
